Values after ≈ are worked out from the molar mass of the structure shown. Like-named read-outs stand apart in the source and are kept apart here.
Columns and labels:
Type in all cases: cell-based
[1] = test system: Escherichia coli 10536; assay: In vitro antibacterial activity (MIC, agar dilution), Biological Example 1; conditions: read-out: Minimum Inhibitory Concentration
[2] = test system: Escherichia coli 851E; assay: as above; conditions: 18 h, Table 25, read-out: Minimum Inhibitory Concentration
[3] = test system: Staphylococcus epidermidis 178; assay: as above; conditions: 18 h; Staphylococcus epidermidis 178, Table 25; read-out: Minimum Inhibitory Concentration
[4] = test system: Escherichia coli TEM5 3739E; assay: microbe, parasite or virus in culture; conditions: TEM53739E, 18 h, read-out: Minimum Inhibitory Concentration
[5] = test system: Salmonella typimurium 14028; assay: In vitro antibacterial activity (MIC, agar dilution), Biological Example 1; conditions: 18 h; Salmonella typimurium 14028, Table 25; read-out: Minimum Inhibitory Concentration
[6] = test system: Escherichia coli TEM3 3455E; assay: microbe, parasite or virus in culture; conditions: TEM33455E, 18 h, read-out: Minimum Inhibitory Concentration
[7] = test system: Enterobacter cloacae P99; assay: microbe, parasite or virus in culture; conditions: P99, 18 h, read-out: Minimum Inhibitory Concentration
[8] = test system: Staphylococcus aureus giorgio; assay: In vitro antibacterial activity (MIC, agar dilution), Biological Example 1; conditions: 18 h, Table 25, read-out: Minimum Inhibitory Concentration
[9] = test system: Klebsiella aerogenes 1976E; assay: as above; conditions: 18 h, Table 25, read-out: Minimum Inhibitory Concentration
[10] = test system: Streptococcus faecalis 29212; assay: as above; conditions: Enterococcus faecalis, 18 h; Streptococcus faecalis 29212, Table 25; read-out: Minimum Inhibitory Concentration
[11] = test system: Staphylococcus aureus 6538p; assay: as above; conditions: 18 h, Table 25, read-out: Minimum Inhibitory Concentration
[12] = test system: Bacillus subtilis 6633; assay: as above; conditions: 18 h; Bacillus subtilis 6633, Table 25; read-out: Minimum Inhibitory Concentration
[13] = test system: Escherichia coli TEM9 2639E; assay: microbe, parasite or virus in culture; conditions: TEM92639E, 18 h, read-out: Minimum Inhibitory Concentration
[14] = test system: Micrococcus luteus 9341; assay: In vitro antibacterial activity (MIC, agar dilution), Biological Example 1; conditions: 18 h; Micrococcus luteus 9341, Table 25; read-out: Minimum Inhibitory Concentration
[15] = test system: Pseudomonas aeruginosa 1912E; assay: as above; conditions: 18 h, read-out: Minimum Inhibitory Concentration
[16] = test system: Staphylococcus aureus 241; assay: as above; conditions: 18 h; Staphylococcus aureus 241, Table 25; read-out: Minimum Inhibitory Concentration
[17] = test system: Escherichia coli 3190Y; assay: as above; conditions: 18 h, Table 25, read-out: Minimum Inhibitory Concentration
[18] = test system: Citrobacter diversus 2046E; assay: as above; conditions: Citrobacter koseri, 18 h, Table 25, read-out: Minimum Inhibitory Concentration
[19] = test system: Staphylococcus aureus 77; assay: as above; conditions: 18 h; Staphylococcus aureus 77, Table 25; read-out: Minimum Inhibitory Concentration
[20] = test system: Klebsiella aerogenes 1082E; assay: as above; conditions: 18 h, Table 25, read-out: Minimum Inhibitory Concentration
[21] = test system: Acinetobacter calcoaceticus 15473; assay: as above; conditions: read-out: Minimum Inhibitory Concentration
[22] = test system: Enterobacter cloacae 1194E; assay: microbe, parasite or virus in culture; conditions: 18 h, read-out: Minimum Inhibitory Concentration
[23] = test system: Staphylococcus epidermidis 887E; assay: In vitro antibacterial activity (MIC, agar dilution), Biological Example 1; conditions: 18 h, Table 25, read-out: Minimum Inhibitory Concentration
[24] = test system: Pseudomonas aeruginosa 10145; assay: as above; conditions: 18 h; Pseudomonas aeruginosa 10145, Table 25; read-out: Minimum Inhibitory Concentration
[25] = 18 h, Escherichia coli 10536, Table 25
[26] = Pseudomonas aeruginosa 1912E, Table 25
[27] = 18 h, Acinetobacter calcoaceticus 15473, Table 25
[28] = Acinetobacter calcoaceticus, 15473, 18 h

SMILES	MIC [2] [µg/mL]	MIC [3] [µg/mL]	MIC [4] [µg/mL]	MIC [5] [µg/mL]	MIC [6] [µg/mL]	MIC [7] [µg/mL]	MIC [8] [µg/mL]	MIC [9] [µg/mL]	MIC [10] [µg/mL]	MIC [11] [µg/mL]	MIC [12] [µg/mL]	MIC [13] [µg/mL]	MIC [14] [µg/mL]	MIC [16] [µg/mL]	MIC [17] [µg/mL]	MIC [18] [µg/mL]	MIC [19] [µg/mL]	MIC [20] [µg/mL]	MIC [22] [µg/mL]	MIC [23] [µg/mL]	further results
C#CCON=C1CN(c2nc3c(cc2F)c(=O)c(C(=O)O)cn3C2CC2)CC1CN (stereo not drawn) [Example 103]	≤ 0.008	4 (≈ 9.68 µM)	0.063 (≈ 0.152 µM)	0.031 (≈ 0.075 µM)	0.13 (≈ 0.314 µM)	≤ 0.008	≤ 0.008	0.063 (≈ 0.152 µM)	0.031 (≈ 0.075 µM)	≤ 0.008	≤ 0.008	0.031 (≈ 0.075 µM)	0.13 (≈ 0.314 µM)	4 (≈ 9.68 µM)	≤ 0.008	0.13 (≈ 0.314 µM)	≤ 0.008	0.031 (≈ 0.075 µM)	0.016 (≈ 0.0387 µM)	≤ 0.008	MIC [1, 25]: ≤ 0.008 µg/mL; MIC [15, 26]: 0.5 µg/mL (≈ 1.21 µM); MIC [21, 27]: 0.031 µg/mL (≈ 0.075 µM); MIC [24]: 0.5 µg/mL (≈ 1.21 µM)
C#CCCON=C1CN(c2nc3c(cc2F)c(=O)c(C(=O)O)cn3C2CC2)CC1CN (stereo not drawn) [Example 104]	≤ 0.008	4 (≈ 9.36 µM)	0.13 (≈ 0.304 µM)	0.031 (≈ 0.0725 µM)	0.25 (≈ 0.585 µM)	0.016 (≈ 0.0374 µM)	≤ 0.008	0.13 (≈ 0.304 µM)	0.031 (≈ 0.0725 µM)	≤ 0.008	≤ 0.008	0.031 (≈ 0.0725 µM)	0.13 (≈ 0.304 µM)	8 (≈ 18.7 µM)	≤ 0.008	≤ 0.008	≤ 0.008	0.031 (≈ 0.0725 µM)	≤ 0.008	0.016 (≈ 0.0374 µM)	MIC [1, 25]: ≤ 0.008 µg/mL; MIC [15, 26]: 1 µg/mL (≈ 2.34 µM); MIC [21, 27]: ≤ 0.008 µg/mL; MIC [24]: 1 µg/mL (≈ 2.34 µM)
CON=C1CN(c2c(F)cc3c(=O)c(C(=O)O)cn(C4CC4)c3c2Cl)CC1CN (stereo not drawn) [Example 178, 7-(4-aminomethyl-3-methoxyiminopyrrolidin-1-yl)-8-chloro-1-cycloprooyl-6-fluoro-4-oxo-1,4-dihydroquinoline-3-carboxylic acid]	0.063 (≈ 0.149 µM)	1 (≈ 2.36 µM)	0.5 (≈ 1.18 µM)	0.063 (≈ 0.149 µM)	1 (≈ 2.36 µM)	0.063 (≈ 0.149 µM)	0.016 (≈ 0.0378 µM)	0.5 (≈ 1.18 µM)	0.063 (≈ 0.149 µM)	0.031 (≈ 0.0733 µM)	0.016 (≈ 0.0378 µM)	0.25 (≈ 0.591 µM)	0.25 (≈ 0.591 µM)	1 (≈ 2.36 µM)	0.016 (≈ 0.0378 µM)	0.13 (≈ 0.307 µM)	0.031 (≈ 0.0733 µM)	0.25 (≈ 0.591 µM)	0.13 (≈ 0.307 µM)	0.031 (≈ 0.0733 µM)	MIC ([1]; Escherichia coli, 10536, 18 h): 0.031 µg/mL (≈ 0.0733 µM); MIC ([15]; Pseudomonas aeruginosa, 1912E): 0.5 µg/mL (≈ 1.18 µM); MIC [21, 28]: 0.13 µg/mL (≈ 0.307 µM); MIC [24]: 1 µg/mL (≈ 2.36 µM)
CON=C1CN(c2cc3c(cc2F)c(=O)c(C(=O)O)cn3C2CC2)CC1CN (stereo not drawn) [Example 179, 7-(4-aminomethyl-3-methoxyiminopyrrolidin-1-yl)-1-cyclopronyl-6-fluoro-4-oxo-1,4-dihydroquinoline-3-carboxylic acid]	≤ 0.008	2 (≈ 5.15 µM)	0.063 (≈ 0.162 µM)	0.063 (≈ 0.162 µM)	0.13 (≈ 0.335 µM)	0.008 (≈ 0.0206 µM)	0.016 (≈ 0.0412 µM)	0.13 (≈ 0.335 µM)	0.031 (≈ 0.0798 µM)	≤ 0.008	≤ 0.008	0.031 (≈ 0.0798 µM)	0.13 (≈ 0.335 µM)	2 (≈ 5.15 µM)	≤ 0.008	0.031 (≈ 0.0798 µM)	0.031 (≈ 0.0798 µM)	0.031 (≈ 0.0798 µM)	0.031 (≈ 0.0798 µM)	0.016 (≈ 0.0412 µM)	MIC ([1]; Escherichia coli, 10536, 18 h): < 0.008 µg/mL; MIC ([15]; Pseudomonas aeruginosa, 1912E): 0.25 µg/mL (≈ 0.644 µM); MIC [21, 28]: 0.016 µg/mL (≈ 0.0412 µM); MIC [24]: 0.25 µg/mL (≈ 0.644 µM)
CON=C1CN(c2nc3c(cc2F)c(=O)c(C(=O)O)cn3C2CC2)CC1CN (stereo not drawn) [Example 180, 7-(4-aminomethyl-3-methoxyiminonyrrolidin-1-yl)-1-cyclopropyl-6-fluoro-4-oxo-1,4-dihydro[1,8]naphthyridine-3-carboxylic acid]	≤ 0.008	2 (≈ 5.14 µM)	0.13 (≈ 0.334 µM)	0.031 (≈ 0.0796 µM)	0.25 (≈ 0.642 µM)	≤ 0.008	≤ 0.008	0.13 (≈ 0.334 µM)	0.063 (≈ 0.162 µM)	≤ 0.008	≤ 0.008	0.031 (≈ 0.0796 µM)	0.13 (≈ 0.334 µM)	2 (≈ 5.14 µM)	≤ 0.008	0.016 (≈ 0.0411 µM)	≤ 0.008	0.016 (≈ 0.0411 µM)	0.031 (≈ 0.0796 µM)	≤ 0.008	MIC ([1]; Escherichia coli, 10536, 18 h): ≤ 0.008 µg/mL; MIC ([15]; Pseudomonas aeruginosa, 1912E): 0.25 µg/mL (≈ 0.642 µM); MIC [21, 28]: 0.0634 µg/mL (≈ 0.163 µM); MIC [24]: 0.25 µg/mL (≈ 0.642 µM)

— patent US5776944A, “7-(4-aminomethyl-3-methyloxyiminopyrroplidin-1-yl)-1-cyclopropyl-6-flu oro-4-oxo-1,4-dihydro-1,8-naphthyridine-3-carboxylic acid and the process for the preparation thereof” (LG Chemical Ltd., priority 1994, dated 1998)
